The test system of series [1] is bile acid β-glucosidase activity of GBA2. Description: Bile acid β-glucosidase activity, liver microsomal enzyme from wild type mouse. The format is biochemical. On the technique in general: Liver microsomes are vesicles of endoplasmic reticulum, rich in cytochrome P450 enzymes.
In series [2] the target is T1, bile acid glucosyltransferase activity of GBA2 (Homo sapiens, UniProt Q9HCG7).
T1 construct: expressed in transfected cells; host or cells: COS-7
T1 sequence (Q9HCG7 1-927): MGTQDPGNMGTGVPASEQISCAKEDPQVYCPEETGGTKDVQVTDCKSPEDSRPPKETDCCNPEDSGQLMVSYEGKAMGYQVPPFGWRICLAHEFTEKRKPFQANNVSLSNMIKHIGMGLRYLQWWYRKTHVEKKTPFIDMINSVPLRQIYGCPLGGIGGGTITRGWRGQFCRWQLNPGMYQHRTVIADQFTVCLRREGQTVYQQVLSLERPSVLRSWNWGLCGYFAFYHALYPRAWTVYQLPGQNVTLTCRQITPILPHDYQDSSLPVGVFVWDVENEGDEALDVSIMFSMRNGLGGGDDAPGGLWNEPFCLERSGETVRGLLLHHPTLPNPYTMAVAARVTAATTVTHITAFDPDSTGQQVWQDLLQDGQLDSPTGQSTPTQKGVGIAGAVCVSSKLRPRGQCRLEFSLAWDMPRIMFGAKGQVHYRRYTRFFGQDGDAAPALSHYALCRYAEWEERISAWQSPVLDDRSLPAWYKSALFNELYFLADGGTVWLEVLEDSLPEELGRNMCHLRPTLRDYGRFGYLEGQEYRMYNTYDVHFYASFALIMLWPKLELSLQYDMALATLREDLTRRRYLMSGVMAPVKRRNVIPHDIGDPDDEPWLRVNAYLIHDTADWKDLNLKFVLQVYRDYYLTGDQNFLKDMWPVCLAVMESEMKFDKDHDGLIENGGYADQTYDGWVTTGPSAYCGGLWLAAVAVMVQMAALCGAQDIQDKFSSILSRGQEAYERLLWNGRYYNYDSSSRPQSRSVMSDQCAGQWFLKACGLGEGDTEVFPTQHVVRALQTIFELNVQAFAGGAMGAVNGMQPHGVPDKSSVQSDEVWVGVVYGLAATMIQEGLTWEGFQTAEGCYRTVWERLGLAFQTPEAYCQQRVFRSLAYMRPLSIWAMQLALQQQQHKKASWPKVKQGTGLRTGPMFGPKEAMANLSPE
Kind of series: Bile acid glucosyltransferase activity, human enzyme expressed in COS-7-cells. The format is biochemical. To be noted: read-out: Transferase activity % of control.

Series [3] addresses T2, bile acid glucosyltransferase activity of GBA2 (Mus musculus, UniProt Q69ZF3).
T2 sequence (Q69ZF3 1-918): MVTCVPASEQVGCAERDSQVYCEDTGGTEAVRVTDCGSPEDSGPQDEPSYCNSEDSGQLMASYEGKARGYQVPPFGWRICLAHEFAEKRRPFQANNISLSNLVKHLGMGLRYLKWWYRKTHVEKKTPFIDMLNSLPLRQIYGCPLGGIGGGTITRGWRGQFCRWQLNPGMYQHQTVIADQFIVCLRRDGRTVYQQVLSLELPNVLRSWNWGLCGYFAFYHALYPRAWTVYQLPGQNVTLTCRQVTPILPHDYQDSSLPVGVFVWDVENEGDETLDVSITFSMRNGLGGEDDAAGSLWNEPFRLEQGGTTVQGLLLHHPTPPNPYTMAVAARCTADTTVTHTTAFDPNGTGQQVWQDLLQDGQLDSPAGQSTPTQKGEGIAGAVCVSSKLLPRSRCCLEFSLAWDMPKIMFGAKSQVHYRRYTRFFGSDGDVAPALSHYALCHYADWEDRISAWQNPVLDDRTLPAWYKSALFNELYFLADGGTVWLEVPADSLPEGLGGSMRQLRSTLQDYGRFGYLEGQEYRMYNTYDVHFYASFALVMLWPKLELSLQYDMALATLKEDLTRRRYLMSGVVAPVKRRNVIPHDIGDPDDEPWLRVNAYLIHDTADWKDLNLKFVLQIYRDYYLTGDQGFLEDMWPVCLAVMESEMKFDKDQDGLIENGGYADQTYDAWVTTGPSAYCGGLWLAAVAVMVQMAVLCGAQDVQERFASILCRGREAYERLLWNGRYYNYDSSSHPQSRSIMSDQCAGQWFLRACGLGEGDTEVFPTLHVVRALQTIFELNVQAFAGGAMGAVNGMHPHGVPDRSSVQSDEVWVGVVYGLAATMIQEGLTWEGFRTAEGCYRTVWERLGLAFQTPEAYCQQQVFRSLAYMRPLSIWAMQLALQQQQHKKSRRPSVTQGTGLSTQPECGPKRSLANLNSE
Description: Bile acid glucosyltransferase activity, murine enzyme expressed in COS-7-cells. The format is biochemical. Details: expressed in transfected cells; host or cells: COS-7. To be noted: read-out: Transferase activity % of control.

The test system of series [4] is liver microsomal β-glucosidase activity from GBA2 (-/-) mice. Kind of series: Liver microsomal β-glucosidase activity from GBA2 (-/-) mice. The format is biochemical. To be noted: liver microsomes from GBA2 (-/-) mice.
The target of series [5] is T2, bile acid glucosyltransferase activity of GBA2. Kind of series: Bile acid glucosyltransferase activity, liver microsomal enzyme from wild type mouse. The format is biochemical. The arrangement: from tissue; host or cells: mouse liver microsomes (wild type). To be noted: read-out: Transferase activity % of control.
In series [6] the target is T3, bile acid β-glucosidase activity of GBA2 (Mus musculus, UniProt Q69ZF3).
T3 construct: expressed in transfected cells; host or cells: COS-7
T3 sequence (Q69ZF3 1-918): T2 sequence (Q69ZF3 1-918)
Kind of series: Bile acid β-glucosidase activity, murine enzyme expressed in COS-7-cells. In kind it is biochemical. To be noted: read-out: β-Glucosidase activity % of control.

For series [7], the target named is T4, bile acid β-glucosidase activity of GBA2 (Homo sapiens, UniProt Q9HCG7).
T4 construct: expressed in transfected cells; host or cells: COS-7
T4 sequence (Q9HCG7 1-927): T1 sequence (Q9HCG7 1-927)
Description: Bile acid β-glucosidase activity, human enzyme expressed in COS-7-cells. The format is biochemical. The following applies: read-out: β-Glucosidase activity % of control.

The next series has as its system rodents. To be noted: administered to rodents; cited from earlier work.
Another series has as its system GBA2. Kind of series: Summary statement on the screening for GBA2 antagonists. In kind it is biochemical. To be noted: summary of Example 22.
The subject of a further series is mice. The following applies: administration to mice; cited from earlier work.

With `O[C@H]1[C@H](O)[C@@H](O)[C@@H]2O[C@@H]2[C@@H]1O` (racemic) [Conduritol B epoxide, reference compound], the results for the “β-Glucosidase activity % of control” value in series [1] (50 µM) and in [4] (20 µM) were 46.9% and 58.9%, respectively. Besides, the remaining activity at 2000 µM in series [2] (2000 µM) stood at 64.6%; in series [3] (2000 µM) it was 48.6%; in series [5] (2000 µM), 60%. The remaining activity at 1000 µM in [6] (1000 µM) was 44.9%; in series [7] (1000 µM, human enzyme expressed in COS-7-cells), 55.7%.

Take `CCCCN1C[C@H](O)[C@@H](O)[C@H](O)[C@H]1CO` [Butyl-dNM, N-butyldeoxynojirimycin]: in the series on rodents, the globozoospermia result is listed as “causes globozoospermia”.

On to `CCCCCCCCCCCCN1C[C@H](O)[C@@H](O)[C@H](O)[C@H]1CO` [Dodecyl-dNM, dodecyldeoxynojirimycin], for which the “β-Glucosidase activity % of control” value in series [1] (0.001 µM) was determined as 51.9%; in [4] (0.2 µM), 57.8%. Also, the remaining activity at 0.002 µM in [2] (0.002 µM) was found to be 50.7%. For the same compound, the remaining activity at 0.001 µM in series [3] (0.001 µM) turned out to be 47.3%. Also, the remaining activity at 0.0006 µM in series [5] (0.0006 µM) amounted to 49.4%. Further, in series [6] (0.0001 µM), the remaining activity at 0.0001 µM was determined as 59.5%. Also, the “inhibitory effect on β-glucosidase and transferase activity (especially on GBA2)” value in the series with GBA2 is recorded as “considerable inhibitory effect”. In series [7], the remaining activity at 0.0002 µM worked out at 49.3%.

Turning to `OC[C@H]1NC[C@H](O)[C@@H](O)[C@@H]1O` [1-Deoxynojirimycin], the “male infertility and globozoospermia” value in the series with mice is “causes male infertility and globozoospermia”.

Values taken from EP2077855B1, “THERAPEUTIC USE OF GBA2” (Yildiz, Dr. med., Yildiz, priority 2006, dated 2008).
